Where a name gives a salt, the structure may show the parent alone.
Target: T1, HiBiT tagged PARP14 (Homo sapiens, UniProt Q460N5)
T1 construct: engineered to contain a HiBiT tag on both alleles of the PARP14 gene; endogenous in cells; host or cells: Jurkat cells stably transfected with LgBiT (Promega), PARP14 locus edited by CRISPR/Cas9
Test: HiBiT assay for the degradation of PARP14 (HiBiT tagged PARP14 in LgBiT expressing Jurkat cells, 2 or 24 hours)
Type: cell-based
Conditions: Assay B (Example B): HiBiT tagged PARP14 degradation in LgBiT expressing Jurkat cells, read-out: DC50
Description: Jurkat cells stably transfected with LgBiT (Promega) were engineered to contain a HiBiT tag on both alleles of the PARP14 gene (Genbank Accession Number: NM_017554) via CRISPR/Cas9 editing. The HiBiT tag is an 11 amino acid tag created by Promega that associates with LgBiT protein to form the NanoLuc® tag on the C-terminus of PARP14. Clones were isolated and confirmed for the HiBiT tag via Sanger sequencing.
Degradation of PARP14 protein was assessed by measuring the luminescence of the HiBiT tag associating with the LgBiT protein as a proxy for the PARP14 protein.
Jurkat cells were diluted to 250,000 cells per mL and then added to assay plate (Corning 3574) using a Multidrop (Thermo Fisher) to add 20 μL per well of the 384 well plate, resulting in 5,000 cells per well. 20 nL of a dose response curve diluted in DMSO of each test compound was added to the cell plate using a Mosquito (TTP Labtech) and the plate was incubated at 37° C. for 2 or 24 hours. Assay plate was brought to room temperature then 5 μL per well of Live Cell Substrate (Promega) was added to the plate. Luminescence was measured on an Envision (Perkin Elmer).
The average DMSO was calculated from 32 wells containing 0.1% DMSO only in columns 12 and 24 of the assay plate. The % of DMSO values were calculated as described below: […]
The % of DMSO values were plotted as a function of compound concentration and the following 4-parameter fit was applied to derive the DC50 values:
where top, bottom, and Hill Coefficient are allowed to float. Y is the % of DMSO and X is the compound concentration.
DC50 data for the Example compounds is provided below in Table 2 (“+” is ≤0.03 μM; “++” is ≥0.03 μM).

T1 sequence (Q460N5 whole entry): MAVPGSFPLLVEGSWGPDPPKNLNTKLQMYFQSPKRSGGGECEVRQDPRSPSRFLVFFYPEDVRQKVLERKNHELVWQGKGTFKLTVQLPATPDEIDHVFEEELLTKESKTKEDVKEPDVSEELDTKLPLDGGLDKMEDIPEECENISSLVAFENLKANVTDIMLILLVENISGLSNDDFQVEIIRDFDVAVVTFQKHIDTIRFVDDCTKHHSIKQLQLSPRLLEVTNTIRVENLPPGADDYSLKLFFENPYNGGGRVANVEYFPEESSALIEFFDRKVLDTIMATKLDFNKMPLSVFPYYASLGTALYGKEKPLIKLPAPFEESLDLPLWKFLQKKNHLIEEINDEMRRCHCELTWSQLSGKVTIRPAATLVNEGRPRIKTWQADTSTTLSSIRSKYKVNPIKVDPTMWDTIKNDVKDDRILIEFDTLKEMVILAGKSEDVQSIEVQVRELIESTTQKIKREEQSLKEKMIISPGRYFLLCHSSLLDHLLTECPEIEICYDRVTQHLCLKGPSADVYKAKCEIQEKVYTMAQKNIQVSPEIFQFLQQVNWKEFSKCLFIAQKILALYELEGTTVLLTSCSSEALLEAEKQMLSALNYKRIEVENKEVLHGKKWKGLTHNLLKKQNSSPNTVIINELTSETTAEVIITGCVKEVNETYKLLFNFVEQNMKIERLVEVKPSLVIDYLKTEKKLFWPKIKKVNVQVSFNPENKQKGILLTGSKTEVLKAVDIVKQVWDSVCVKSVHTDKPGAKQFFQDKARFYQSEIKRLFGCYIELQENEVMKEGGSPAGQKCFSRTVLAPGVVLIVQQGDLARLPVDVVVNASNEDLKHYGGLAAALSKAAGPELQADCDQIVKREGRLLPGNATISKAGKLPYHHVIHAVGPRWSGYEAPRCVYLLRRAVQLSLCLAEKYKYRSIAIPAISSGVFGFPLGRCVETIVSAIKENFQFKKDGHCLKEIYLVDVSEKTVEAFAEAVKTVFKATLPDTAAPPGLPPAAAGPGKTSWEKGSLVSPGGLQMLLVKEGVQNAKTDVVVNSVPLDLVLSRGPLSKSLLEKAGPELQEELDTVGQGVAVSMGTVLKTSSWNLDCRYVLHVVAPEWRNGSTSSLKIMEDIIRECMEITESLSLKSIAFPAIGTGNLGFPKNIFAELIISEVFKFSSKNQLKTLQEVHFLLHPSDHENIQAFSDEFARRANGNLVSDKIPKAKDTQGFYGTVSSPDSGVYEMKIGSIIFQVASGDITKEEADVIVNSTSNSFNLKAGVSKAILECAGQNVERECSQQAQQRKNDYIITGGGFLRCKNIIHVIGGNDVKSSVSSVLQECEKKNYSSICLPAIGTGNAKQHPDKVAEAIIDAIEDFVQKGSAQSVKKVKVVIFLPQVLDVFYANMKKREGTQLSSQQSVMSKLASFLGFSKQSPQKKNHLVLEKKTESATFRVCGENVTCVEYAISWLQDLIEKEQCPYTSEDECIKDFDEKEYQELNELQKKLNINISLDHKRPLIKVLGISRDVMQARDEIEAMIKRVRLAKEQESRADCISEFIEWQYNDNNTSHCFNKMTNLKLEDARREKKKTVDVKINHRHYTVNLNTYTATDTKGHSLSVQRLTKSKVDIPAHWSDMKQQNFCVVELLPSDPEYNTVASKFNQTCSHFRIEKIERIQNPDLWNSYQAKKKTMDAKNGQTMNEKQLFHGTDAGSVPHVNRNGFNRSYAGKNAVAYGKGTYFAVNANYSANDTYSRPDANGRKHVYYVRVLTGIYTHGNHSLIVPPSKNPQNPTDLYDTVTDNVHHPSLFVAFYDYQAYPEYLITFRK

Structure (SMILES) | DC50
Cn1nc(N2CCC(=O)NC2=O)c2cccc(N3CCN(CCN4CCC(COc5cc(F)c6c(=O)[nH]c(CSC7CCOCC7)nc6c5)CC4)CC3)c21 [Example 101, 1-(7-(4-(2-(4-(((5-fluoro-4-oxo-2-(((tetrahydro-2H-pyran-4-yl)thio)methyl)-3,4-dihydroquinazolin-7-yl)oxy)methyl)piperidin-1-yl)ethyl)piperazin-1-yl)-1-methyl-1H-indazol-3-yl)dihydropyrimidine-2,4(1H,3H)-dione] | < 30 nM
Cn1nc(C2CCC(=O)NC2=O)c2ccc(N3CCN(CCN4CCC(COc5cc(F)c6c(=O)[nH]c(CSC7CCOCC7)nc6c5)CC4)CC3)cc21 (stereo not drawn) [Example 102, 3-(6-(4-(2-(4-(((5-Fluoro-4-oxo-2-(((tetrahydro-2H-pyran-4-yl)thio)methyl)-3,4-dihydroquinazolin-7-yl)oxy)methyl)piperidin-1-yl)ethyl)piperazin-1-yl)-1-methyl-1H-indazol-3-yl)piperidine-2,6-dione] | < 30 nM
O=C1CCC(N2C(=O)c3cccc4c(N5CCN(CCN6CCC(COc7cc(F)c8c(=O)[nH]c(CSC9CCOCC9)nc8c7)CC6)CC5)ccc2c34)C(=O)N1 (stereo not drawn) [Example 103, 3-(6-(4-(2-(4-(((5-fluoro-4-oxo-2-(((tetrahydro-2H-pyran-4-yl)thio)methyl)-3,4-dihydroquinazolin-7-yl)oxy)methyl)piperidin-1-yl)ethyl)piperazin-1-yl)-2-oxobenzo[cd]indol-1(2H)-yl)piperidine-2,6-dione] | < 30 nM
O=C1CCC(Nc2ccc(F)c(N3CCN(CCN4CCC(COc5cc(F)c6c(=O)[nH]c(CSC7CCOCC7)nc6c5)CC4)CC3)c2)C(=O)N1 (stereo not drawn) [Example 104, 3-((4-fluoro-3-(4-(2-(4-(((5-fluoro-4-oxo-2-(((tetrahydro-2H-pyran-4-yl)thio)methyl)-3,4-dihydroquinazolin-7-yl)oxy)methyl)piperidin-1-yl)ethyl)piperazin-1-yl)phenyl)amino)piperidine-2,6-dione] | < 30 nM
O=C1CCC(Nc2ccc(N3CCN(CCN4CCC(COc5cc(F)c6c(=O)[nH]c(CC7CC7)nc6c5)CC4)CC3)c(F)c2)C(=O)N1 (stereo not drawn) [Example 105, 3-((4-(4-(2-(4-(((2-(cyclopropylmethyl)-5-fluoro-4-oxo-3,4-dihydroquinazolin-7-yl)oxy)methyl)piperidin-1-yl)ethyl)piperazin-1-yl)-3-fluorophenyl)amino)piperidine-2,6-dione formate] | < 30 nM
O=C1CCC(Nc2ccc(N3CCN(CCN4CCC(COc5cc(F)c6c(=O)[nH]c(CC7CCC7)nc6c5)CC4)CC3)c(F)c2)C(=O)N1 (stereo not drawn) [Example 106, 3-((4-(4-(2-(4-(((2-(cyclobutylmethyl)-5-fluoro-4-oxo-3,4-dihydroquinazolin-7-yl)oxy)methyl)piperidin-1-yl)ethyl)piperazin-1-yl)-3-fluorophenyl)amino)piperidine-2,6-dione formate] | < 30 nM
O=C1CCC(Nc2ccc(N3CCN(CCN4CCC(COc5cc(F)c6c(=O)[nH]c(CC7CCCC7)nc6c5)CC4)CC3)c(F)c2)C(=O)N1 (stereo not drawn) [Example 107, 3-((4-(4-(2-(4-(((2-(cyclopentylmethyl)-5-fluoro-4-oxo-3,4-dihydroquinazolin-7-yl)oxy)methyl)piperidin-1-yl)ethyl)piperazin-1-yl)-3-fluorophenyl)amino)piperidine-2,6-dione formate] | < 30 nM
O=C1CCC(Nc2cnc(N3CCN(CCN4CCC(COc5cc(F)c6c(=O)[nH]c(CSC7CCOCC7)nc6c5)CC4)CC3)c(F)c2)C(=O)N1 (stereo not drawn) [Example 108, 3-((5-fluoro-6-(4-(2-(4-(((5-fluoro-4-oxo-2-(((tetrahydro-2H-pyran-4-yl)thio)methyl)-3,4-dihydroquinazolin-7-yl)oxy)methyl)piperidin-1-yl)ethyl)piperazin-1-yl)pyridin-3-yl)amino)piperidine-2,6-dione] | < 30 nM
O=C1CCC(Nc2ccc(OC3CC(CN4CCC(COc5cc(F)c6c(=O)[nH]c(CCC7CCOCC7)nc6c5)CC4)C3)cc2)C(=O)N1 (stereo not drawn) [Example 110] | < 30 nM
O=C1CCC(Nc2ccc(OC3CCC(CN4CCC(COc5cc(F)c6c(=O)[nH]c(CSC7CCOCC7)nc6c5)CC4)CC3)cc2)C(=O)N1 (stereo not drawn) [Example 111] | < 30 nM
O=C1CCC(Nc2ccc(N3CCC(N4CCC(COc5cc(F)c6c(=O)[nH]c(CSC7CCOCC7)nc6c5)CC4)CC3)cc2)C(=O)N1 (stereo not drawn) [Example 112, 3-((4-(4-(((5-fluoro-4-oxo-2-(((tetrahydro-2H-pyran-4-yl)thio)methyl)-3,4-dihydroquinazolin-7-yl)oxy)methyl)-[1,4′-bipiperidin]-1′-yl)phenyl)amino)piperidine-2,6-dione] | < 30 nM
O=C1CCC(Nc2ccc(N3CCC(N4CCC(COc5cc(F)c6c(=O)[nH]c(CSC7CCOCC7)nc6c5)CC4)CC3)c(F)c2)C(=O)N1 (stereo not drawn) [Example 113] | < 30 nM
O=C1CCC(Nc2ccc(N3CCC(N4CCC(COc5cc(F)c6c(=O)[nH]c(CCC7CCOCC7)nc6c5)CC4)CC3)cc2)C(=O)N1 (stereo not drawn) [Example 114] | < 30 nM
O=C1CCC(Nc2ccc(N3CCC(N4CCC(COc5cc(F)c6c(=O)[nH]c(COC7CCOCC7)nc6c5)CC4)CC3)cc2)C(=O)N1 (stereo not drawn) [Example 115] | < 30 nM
O=C1CCC(Nc2ccc(N3CCC(N4CC(N5CCC(COc6cc(F)c7c(=O)[nH]c(CSC8CCOCC8)nc7c6)CC5)C4)CC3)c(F)c2)C(=O)N1 (stereo not drawn) [Example 116, 3-((3-fluoro-4-(4-(3-(4-(((5-fluoro-4-oxo-2-(((tetrahydro-2H-pyran-4-yl)thio)methyl)-3,4-dihydroquinazolin-7-yl)oxy)methyl)piperidin-1-yl)azetidin-1-yl)piperidin-1-yl)phenyl)amino)piperidine-2,6-dione] | < 30 nM
O=C1CCC(Nc2ccc(N3CCC(N4CCC(COc5cc(F)c6c(=O)[nH]c(CCC7CCOCC7)nc6c5)CC4)CC3)c(F)c2)C(=O)N1 (stereo not drawn) [Example 117, 3-((3-fluoro-4-(4-(((5-fluoro-4-oxo-2-(2-(tetrahydro-2H-pyran-4-yl)ethyl)-3,4-dihydroquinazolin-7-yl)oxy)methyl)-[1,4′-bipiperidin]-11′-yl)phenyl)amino)piperidine-2,6-dione] | < 30 nM
O=C1CCC(Nc2ccc(N3CCC(CCN4CCC(COc5cc(F)c6c(=O)[nH]c(CSC7CCOCC7)nc6c5)CC4)CC3)cc2)C(=O)N1 (stereo not drawn) [Example 118, 3-((4-(4-(2-(4-(((5-fluoro-4-oxo-2-(((tetrahydro-2H-pyran-4-yl)thio)methyl)-3,4-dihydroquinazolin-7-yl)oxy)methyl)piperidin-1-yl)ethyl)piperidin-1-yl)phenyl)amino)piperidine-2,6-dione] | < 30 nM
O=C1CCC(Nc2ccc(N3CCN(CCN4CCC(COc5cc(F)c6c(=O)[nH]c(CSC7CCOCC7)nc6c5)CC4)CC3)cn2)C(=O)N1 (stereo not drawn) [Example 119] | < 30 nM
O=C1CCC(Nc2ccc(OC3CCN(CCN4CCC(COc5cc(F)c6c(=O)[nH]c(CSC7CCOCC7)nc6c5)CC4)CC3)cc2)C(=O)N1 (stereo not drawn) [Example 120, 3-((4-((1-(2-(4-(((5-fluoro-4-oxo-2-(((tetrahydro-2H-pyran-4-yl)thio)methyl)-3,4-dihydroquinazolin-7-yl)oxy)methyl)piperidin-1-yl)ethyl)piperidin-4-yl)oxy)phenyl)amino)piperidine-2,6-dione] | < 30 nM
O=C1CCC(Nc2ccc(N3CCC(N4CCN(CCOc5cc(F)c6c(=O)[nH]c(CSC7CCOCC7)nc6c5)CC4)CC3)cc2)C(=O)N1 (stereo not drawn) [Example 125] | < 30 nM
O=C1CCC(Nc2ccc(N3CCN(C4CCN(CCOc5cc(F)c6c(=O)[nH]c(CSC7CCOCC7)nc6c5)CC4)CC3)c(F)c2)C(=O)N1 (stereo not drawn) [Example 126] | < 30 nM
O=C1CCC(Nc2ccc(N3CC(N4CCC(CCOc5cc(F)c6c(=O)[nH]c(CSC7CCOCC7)nc6c5)CC4)C3)cc2)C(=O)N1 (stereo not drawn) [Example 127, 3-((4-(3-(4-(2-((5-fluoro-4-oxo-2-(((tetrahydro-2H-pyran-4-yl)thio)methyl)-3,4-dihydroquinazolin-7-yl)oxy)ethyl)piperidin-1-yl)azetidin-1-yl)phenyl)amino)piperidine-2,6-dione] | < 30 nM
O=C1CCC(Nc2ccc(N3CCC4(CC3)CC(N3CCC(COc5cc(F)c6c(=O)[nH]c(CSC7CCOCC7)nc6c5)CC3)C4)cc2)C(=O)N1 (stereo not drawn) [Example 128] | < 30 nM
O=C1CCC(Nc2ccc(N3CCN(CCN4CCC(CNc5cc6nc(CSC7CCOCC7)[nH]c(=O)c6c(F)c5F)CC4)CC3)cc2)C(=O)N1 (stereo not drawn) [Example 129, 3-((4-(4-(2-(4-(((5,6-difluoro-4-oxo-2-(((tetrahydro-2H-pyran-4-yl)thio)methyl)-3,4-dihydroquinazolin-7-yl)amino)methyl)piperidin-1-yl)ethyl)piperazin-1-yl)phenyl)amino)piperidine-2,6-dione formate] | < 30 nM

From patent US20240101540A1, “TARGETED PROTEIN DEGRADATION OF PARP14 FOR USE IN THERAPY” (Ribon Therapeutics, Inc., priority 2022, published 2024)
